Experimental data published in patent US6858618B2, “Use of rosuvastatin (zd-4522) in the treatment of heterozygous familial hypercholesterolemia” (AstraZeneca AB, priority 2000, dated 2005).
Marks after values point to notes of the source that are not given here.

Legend:
[1] = tested on: subjects with heterozygous familial hypercholesterolemia; assay: 24-week randomised double-blind Phase III trial of ZD4522 versus atorvastatin: efficacy (lipids, guideline targets, CRP); type: in vivo, human; settings: for mean % reduction in LDL-C / Percentage subjects reaching EAS target for LDL-C levels at Week 18, high-risk / Percentage subjects reaching EAS target for LDL-C levels at Week 18, overall / Percentage subjects reaching NCEP target for LDL-C levels at Week 18, high-risk / Percentage subjects reaching NCEP target for LDL-C levels at Week 18, overall / Percentage change from baseline to Week 18 in inflammatory marker CRP / Lsmean of percentage change from baseline to Week 18 in ApoA-I / Lsmean of percentage change from baseline to Week 18 in ApoB / Lsmean of percentage change from baseline to Week 18 in ApoB/ApoA-I ratio / Lsmean of percentage change from baseline to Week 18 in HDL-C / Lsmean of percentage change from baseline to Week 18 in LDL-C / Lsmean of percentage change from baseline to Week 18 in LDL-C/HDL-C ratio / Lsmean of percentage change from baseline to Week 18 in Non-HDL-C/HDL-C ratio / Lsmean of percentage change from baseline to Week 18 in TC / Lsmean of percentage change from baseline to Week 18 in TC/HDL-C ratio / Lsmean of percentage change from baseline to Week 18 in TG: HeFH subjects; for mean % reduction in LDL-C / Percentage subjects reaching EAS target for LDL-C levels at Week 18, high-risk / Percentage subjects reaching EAS target for LDL-C levels at Week 18, overall / Percentage subjects reaching NCEP target for LDL-C levels at Week 18, high-risk / Percentage subjects reaching NCEP target for LDL-C levels at Week 18, overall / Percentage change from baseline to Week 18 in inflammatory marker CRP: 20/40/80 mg; for mean % reduction in LDL-C: primary efficacy analysis; for Percentage subjects reaching EAS target for LDL-C levels at Week 18, high-risk / Percentage subjects reaching EAS target for LDL-C levels at Week 18, overall / Percentage subjects reaching NCEP target for LDL-C levels at Week 18, high-risk / Percentage subjects reaching NCEP target for LDL-C levels at Week 18, overall / Lsmean of percentage change from baseline to Week 18 in ApoA-I / Lsmean of percentage change from baseline to Week 18 in ApoB / Lsmean of percentage change from baseline to Week 18 in ApoB/ApoA-I ratio / Lsmean of percentage change from baseline to Week 18 in HDL-C / Lsmean of percentage change from baseline to Week 18 in LDL-C / Lsmean of percentage change from baseline to Week 18 in LDL-C/HDL-C ratio / Lsmean of percentage change from baseline to Week 18 in Non-HDL-C/HDL-C ratio / Lsmean of percentage change from baseline to Week 18 in TC / Lsmean of percentage change from baseline to Week 18 in TC/HDL-C ratio / Lsmean of percentage change from baseline to Week 18 in TG: Week 18, LOCF on ITT population; for Percentage change from baseline to Week 18 in inflammatory marker CRP: Week 18, observed data; for Lsmean of percentage change from baseline to Week 18 in ApoA-I / Lsmean of percentage change from baseline to Week 18 in ApoB / Lsmean of percentage change from baseline to Week 18 in ApoB/ApoA-I ratio / Lsmean of percentage change from baseline to Week 18 in HDL-C / Lsmean of percentage change from baseline to Week 18 in LDL-C / Lsmean of percentage change from baseline to Week 18 in LDL-C/HDL-C ratio / Lsmean of percentage change from baseline to Week 18 in Non-HDL-C/HDL-C ratio / Lsmean of percentage change from baseline to Week 18 in TC / Lsmean of percentage change from baseline to Week 18 in TC/HDL-C ratio / Lsmean of percentage change from baseline to Week 18 in TG: oral once daily, forced titration 20/40/80 mg
Procedure: We have conducted a Phase III trial designed to assess the efficacy of ZD4522 in subjects with HeFH. The dose-response of ZD4522 was compared with atorvastatin using the percentage change from baseline in LDL-C levels as the primary end-point. Doses of ZD4522 up to 80 mg per day were use& Atorvastatin was chosen as the comparator statin in this trial because it has the best LDL-C lowering activity of the currently marketed statins.
The primary objective was to compare the efficacy of ZD4522 (titrated to 80 mg) with that of atorvastatin (titrated to 80 mg) in reducing low-density lipoprotein cholesterol (LDL-C) levels in subjects with heterozygous familial hypercholesterolemia (HeFH) after 18 weeks of treatment.
Population: A total of 265 (200 in the ZD4522 group, 65 in the atorvastatin group) randomised to and evaluable subjects with documented heterozygous F, derived from approximately 1240 recruited subjects, were required to enable 80% power in detecting a 6% difference between groups in the percentage change from baseline in LDL-C levels.
Key exclusion criteria: Various concomitant illnesses, including active liver disease or hepatic dysfunction (defined by an alanine aminotransferase [ALT], aspartate amninotransferase [AST] or bilirubin concentration […] of normal [ULN]), active arterial disease, history of malignancy (unless basal or squamous cell skin carcinoma), uncontrolled hypertension, and uncontrolled hypothyroidism; serum creatine kinase (CK) concentration >3×ULN; usage of concomitant medications known to affect the lipid profile or present a potential safety concern (for example, through drug interaction).
Efficacy: Fasting LDL-C, total cholesterol (TC), high-density lipoprotein cholesterol (HDL-C), and TG were assessed at, Weeks 0, 2, 6, 12, and 18; fasting apolipoprotein (ApoB) and apolipoprotein A-I (ApoA-I) were assessed at Weeks 0 and 18; C-reactive protein (CRP) was assessed at Weeks 0 and 18. Dietary compliance throughout the trial was assessed and evaluated.
The primary end-point was the percentage change from baseline to Week 18 in LDL-C levels, and was analysed using analysis of variance (ANOVA) on last observations carried forward (LOCF) from an intention-to-treat (ITT) population; the initial ANOVA model included terms for treatment, center, and center-by-treatment interaction. Additional analyses using observed data from ITT and per-protocol (PP) populations were used to confirm the robustness of the Main ITT analysis.
Percentage changes from baseline in the other lipids and lipoproteins were secondary end-points of the trial and were analysed using ANOVA. The other secondary end-points of the percentage of subjects in the ITT population who achieved targets for LDL-C levels specified by the National Cholesterol Education Program (NCEP) or the European Atherosclerosis Society (EAS), and the percentage change from baseline in the inflammatory marker CRP, were summarised only.

[2] = tested on: subjects with heterozygous familial hypercholesterolemia; assay: 24-week randomised double-blind Phase III trial of ZD4522 versus atorvastatin: safety assessments; settings: HeFH subjects, 20/40/80 mg, safety population
Procedure: A further secondary objective was to determine the safety of ZD4522.
Design: A 24-week, randomised, double-blind, 2-group, parallel-group, forced-titration, multicentre, multinational trial. After a 6-week dietary lead-in period, subjects were randomised to treatment with either ZD4522 20 mg, or atorvastatin 20 mg for 6 weeks. Following this initial treatment period, all subjects with an LDL-C level >1.3 mmol/L (50 mg/dL) were force-titrated at 6-week intervals as follows; from ZD4522 20 to 40 to 80 mg, and from atorvastatin 20 to 40 to 80 mg. The maximum titrated dose of either treatment after 18 weeks was 80 mg.
Dosage: Subjects took oral doses of trial treatment once daily, approximately 3 hours after the evening meal. Doses of treatments were as follows; ZD4522 20, 40, and 80 mg, atorvastatin 20, 40, and 80 mg. Subjects had their doses titrated up at 6-week intervals in a sequential manner, if appropriate.
Safety: Standard safety assessments included adverse event pot clinical laboratory data (hepatic biochemistry, CK, renal biochemistry, haematology, urinalysis), vital signs, electrocardiograms (ECGs) and physical examination.

| Structure (SMILES) | mean % reduction in LDL-C ([1]; 18 weeks, LOCF) | Percentage subjects reaching EAS target for LDL-C levels at Week 18, high-risk [1] | Percentage subjects reaching EAS target for LDL-C levels at Week 18, overall [1] | Percentage subjects reaching NCEP target for LDL-C levels at Week 18, high-risk [1] | Percentage subjects reaching NCEP target for LDL-C levels at Week 18, overall [1] | Percentage change from baseline to Week 18 in inflammatory marker CRP [1] | Lsmean of percentage change from baseline to Week 18 in ApoA-I [1] | Lsmean of percentage change from baseline to Week 18 in ApoB [1] | Lsmean of percentage change from baseline to Week 18 in ApoB/ApoA-I ratio [1] | Lsmean of percentage change from baseline to Week 18 in HDL-C [1] | Lsmean of percentage change from baseline to Week 18 in LDL-C [1] | Lsmean of percentage change from baseline to Week 18 in LDL-C/HDL-C ratio [1] | Lsmean of percentage change from baseline to Week 18 in Non-HDL-C/HDL-C ratio [1] | Lsmean of percentage change from baseline to Week 18 in TC [1] | Lsmean of percentage change from baseline to Week 18 in TC/HDL-C ratio [1] | Lsmean of percentage change from baseline to Week 18 in TG [1] | also measured |
| --- | --- | --- | --- | --- | --- | --- | --- | --- | --- | --- | --- | --- | --- | --- | --- | --- | --- |
| CC(C)c1nc(N(C)S(C)(=O)=O)nc(-c2ccc(F)cc2)c1/C=C/[C@@H](O)C[C@@H](O)CC(=O)O [ZD4522, (E)-7-[4-(4-fluorophenyl)-6-isopropyl-2-[methyl(methylsulfonyl)amino]pyrimidin-5-yl](3R,5S)-3,5-dihydroxyhept-6-enoic acid] | 57.88% | 47.5% | 47.4% | 23.9% | 60.5% | 25.21% | 5.86^b % | −50.21^b % | −52.03^b % | 12.36^b % | −57.88^b % | −61.69^b % | −59.40^b % | −46.35^b % | −51.44^b % | −27.82^ns % | difference between treatments in % reduction in LDL-C (versus atorvastatin 20/40/80 mg) ([1]; 18 weeks, LOCF, ZD4522 20/40/80 mg versus atorvastatin 20/40/80 mg): > 6% |
| CC(C)c1c(C(=O)Nc2ccccc2)c(-c2ccccc2)c(-c2ccc(F)cc2)n1CC[C@@H](O)C[C@@H](O)CC(=O)O [Atorvastatin, atorvastatin] | 50.41% | 24.2% | 24.1% | 3.2% | 46.0% | 31.28% | −2.33^b % | −44.44^b % | −42.46^b % | 2.91^b % | −50.41^b % | −51.16^b % | −49.86^b % | −42.13^b % | −43.17^b % | −31.60^ns % | clinically significant elevations (≧10×ULN) in CK [2]: no clinically significant elevations; incidence of clinically significant elevations in ALT (≧3×ULN) [2]: 1.1%; number of patients with clinically significant elevations in ALT (≧3×ULN) [2]: 2 patients; overall incidence of AEs (including treatment-related AEs, AEs leading to withdrawals and SAEs) [2]: 65.8% |
